Tests used:
Assay in all cases: KINOMEscan competition binding
Settings in all cases: compound 10.0 µM
ABL2 (human) = ABL2 (human) (UniProt P42684)
YES1 (human) = YES1 (human) (UniProt P07947)
CSNK1G2 (human) = CSNK1G2 (human) (UniProt P78368)
IRAK3 (human) = IRAK3 (human) (UniProt Q9Y616)
TEC (human) = TEC (human) (UniProt P42680)
MYLK4 (human) = MYLK4 (human) (UniProt Q86YV6)
PKN1 (human) = PKN1 (human) (UniProt Q16512)
STK17B (human) = STK17B (human) (UniProt O94768)
STK24 (human) = STK24 (human) (UniProt Q9Y6E0)
PRKCE (human) = PRKCE (human) (UniProt Q02156)
WEE2 (human) = WEE2 (human) (UniProt P0C1S8)
Chain of WEE2 (human) (P0C1S8 whole entry, looked up): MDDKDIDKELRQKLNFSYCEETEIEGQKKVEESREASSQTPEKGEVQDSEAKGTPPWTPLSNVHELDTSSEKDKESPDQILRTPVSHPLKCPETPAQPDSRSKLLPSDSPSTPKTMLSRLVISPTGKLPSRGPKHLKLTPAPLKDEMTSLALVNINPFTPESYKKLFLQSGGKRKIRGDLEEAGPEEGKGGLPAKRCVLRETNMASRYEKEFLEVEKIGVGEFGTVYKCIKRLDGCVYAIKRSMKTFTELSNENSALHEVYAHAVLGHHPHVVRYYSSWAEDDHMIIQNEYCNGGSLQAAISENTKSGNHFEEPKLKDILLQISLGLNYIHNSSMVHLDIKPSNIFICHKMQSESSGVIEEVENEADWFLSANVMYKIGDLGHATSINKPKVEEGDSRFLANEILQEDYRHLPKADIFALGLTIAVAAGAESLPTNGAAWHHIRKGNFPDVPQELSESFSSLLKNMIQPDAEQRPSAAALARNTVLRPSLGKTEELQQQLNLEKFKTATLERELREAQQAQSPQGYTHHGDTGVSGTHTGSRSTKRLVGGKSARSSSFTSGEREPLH

CLK3 (human) = CLK3 (human) (UniProt P49761)
Chain of CLK3 (human) (P49761 whole entry, looked up): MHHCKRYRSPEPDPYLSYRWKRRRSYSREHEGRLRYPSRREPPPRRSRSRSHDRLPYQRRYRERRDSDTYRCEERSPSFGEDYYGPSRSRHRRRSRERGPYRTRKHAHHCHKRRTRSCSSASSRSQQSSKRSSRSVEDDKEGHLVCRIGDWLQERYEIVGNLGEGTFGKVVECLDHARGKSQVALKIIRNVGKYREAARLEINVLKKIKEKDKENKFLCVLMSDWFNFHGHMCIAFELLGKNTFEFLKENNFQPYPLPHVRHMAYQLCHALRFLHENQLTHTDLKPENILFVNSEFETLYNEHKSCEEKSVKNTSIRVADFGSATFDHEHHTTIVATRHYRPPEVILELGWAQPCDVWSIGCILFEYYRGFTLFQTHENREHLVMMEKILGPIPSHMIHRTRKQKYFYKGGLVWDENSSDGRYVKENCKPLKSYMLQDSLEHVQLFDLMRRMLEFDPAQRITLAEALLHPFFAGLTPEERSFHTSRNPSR

BLK (human) = BLK (human) (UniProt P51451)
GAK (human) = GAK (human) (UniProt O14976)
SRPK2 (human) = SRPK2 (human) (UniProt P78362)
Chain of SRPK2 (human) (P78362 whole entry, looked up): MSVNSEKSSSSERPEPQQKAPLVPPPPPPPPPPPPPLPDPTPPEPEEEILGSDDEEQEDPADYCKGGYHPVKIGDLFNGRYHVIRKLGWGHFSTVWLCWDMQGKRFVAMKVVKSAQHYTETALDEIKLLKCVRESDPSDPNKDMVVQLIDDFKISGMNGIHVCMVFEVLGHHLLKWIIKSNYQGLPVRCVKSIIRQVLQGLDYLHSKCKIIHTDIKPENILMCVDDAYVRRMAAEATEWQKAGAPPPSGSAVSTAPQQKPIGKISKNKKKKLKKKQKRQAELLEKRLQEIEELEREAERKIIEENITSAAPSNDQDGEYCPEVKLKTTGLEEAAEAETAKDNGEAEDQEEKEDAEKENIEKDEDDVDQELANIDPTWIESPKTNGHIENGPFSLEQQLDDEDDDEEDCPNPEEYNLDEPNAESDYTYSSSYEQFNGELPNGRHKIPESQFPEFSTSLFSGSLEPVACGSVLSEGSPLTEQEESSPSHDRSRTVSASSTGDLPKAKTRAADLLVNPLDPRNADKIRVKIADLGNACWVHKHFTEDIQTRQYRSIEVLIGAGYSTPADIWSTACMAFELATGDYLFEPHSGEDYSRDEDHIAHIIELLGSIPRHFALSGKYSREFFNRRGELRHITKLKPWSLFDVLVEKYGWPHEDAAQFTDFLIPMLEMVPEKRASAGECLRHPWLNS

CIT (human) = CIT (human) (UniProt O14578)
NTRK3 (human) = NTRK3 (human) (UniProt Q16288)
Chain of NTRK3 (human) (Q16288 whole entry, looked up): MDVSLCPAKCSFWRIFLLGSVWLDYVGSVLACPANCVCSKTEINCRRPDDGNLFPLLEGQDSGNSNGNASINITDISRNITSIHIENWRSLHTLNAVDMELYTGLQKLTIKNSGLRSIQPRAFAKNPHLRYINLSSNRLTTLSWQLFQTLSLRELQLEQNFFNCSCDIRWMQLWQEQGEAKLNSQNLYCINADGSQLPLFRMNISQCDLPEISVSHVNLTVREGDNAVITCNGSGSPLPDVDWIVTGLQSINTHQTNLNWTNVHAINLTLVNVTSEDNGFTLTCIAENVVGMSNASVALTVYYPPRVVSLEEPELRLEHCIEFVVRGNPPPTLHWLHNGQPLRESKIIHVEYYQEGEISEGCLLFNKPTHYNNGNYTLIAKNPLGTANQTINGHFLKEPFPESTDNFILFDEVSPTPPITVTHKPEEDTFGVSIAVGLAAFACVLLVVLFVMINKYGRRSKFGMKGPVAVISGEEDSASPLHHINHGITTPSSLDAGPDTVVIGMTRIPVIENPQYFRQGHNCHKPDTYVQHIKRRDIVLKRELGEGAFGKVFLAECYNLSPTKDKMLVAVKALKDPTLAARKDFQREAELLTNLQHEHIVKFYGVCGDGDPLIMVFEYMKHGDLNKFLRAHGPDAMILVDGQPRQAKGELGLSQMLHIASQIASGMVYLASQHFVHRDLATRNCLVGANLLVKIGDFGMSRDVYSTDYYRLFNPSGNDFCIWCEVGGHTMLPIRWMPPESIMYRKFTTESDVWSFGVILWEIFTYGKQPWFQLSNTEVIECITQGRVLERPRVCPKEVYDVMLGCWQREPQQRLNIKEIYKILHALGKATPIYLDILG

AXL (human) = AXL (human) (UniProt P30530)
ERBB2 (human) = ERBB2 (human) (UniProt P04626)
SRC (human) = SRC (human) (UniProt P12931)
CDK9 (human) = CDK9 (human) (UniProt P50750)
HCK (human) = HCK (human) (UniProt P08631)
MINK1 (human) = MINK1 (human) (UniProt Q8N4C8)
PAK7 (human) = PAK7 (human) (UniProt Q9P286)
Chain of PAK7 (human) (Q9P286 whole entry, looked up): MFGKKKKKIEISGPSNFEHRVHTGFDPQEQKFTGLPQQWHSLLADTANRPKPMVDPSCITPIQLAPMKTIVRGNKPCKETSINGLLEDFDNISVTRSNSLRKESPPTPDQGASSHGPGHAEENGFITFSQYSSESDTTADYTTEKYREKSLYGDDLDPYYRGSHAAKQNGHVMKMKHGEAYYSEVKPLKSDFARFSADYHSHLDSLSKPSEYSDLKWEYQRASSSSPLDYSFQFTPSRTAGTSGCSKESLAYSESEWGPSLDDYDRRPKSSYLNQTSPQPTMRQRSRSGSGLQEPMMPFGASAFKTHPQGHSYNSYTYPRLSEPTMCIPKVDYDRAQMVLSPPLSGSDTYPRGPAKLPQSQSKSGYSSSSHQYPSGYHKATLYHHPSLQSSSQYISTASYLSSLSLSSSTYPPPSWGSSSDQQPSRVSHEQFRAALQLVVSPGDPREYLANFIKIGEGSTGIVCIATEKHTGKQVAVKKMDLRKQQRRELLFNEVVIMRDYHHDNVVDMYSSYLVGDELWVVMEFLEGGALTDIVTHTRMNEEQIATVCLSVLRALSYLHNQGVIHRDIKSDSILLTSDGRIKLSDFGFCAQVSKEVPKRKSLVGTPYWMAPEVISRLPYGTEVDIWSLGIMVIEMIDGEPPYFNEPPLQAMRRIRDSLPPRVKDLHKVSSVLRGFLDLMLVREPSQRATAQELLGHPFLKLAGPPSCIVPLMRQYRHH

RPS6KA3 KD1 (human) = RPS6KA3 KD1 (human) (UniProt P51812)
BMPR1B (human) = BMPR1B (human) (UniProt O00238)
PRKCQ (human) = PRKCQ (human) (UniProt Q04759)
INSRR (human) = INSRR (human) (UniProt P14616)
PRKD3 (human) = PRKD3 (human) (UniProt O94806)
Chain of PRKD3 (human) (O94806 whole entry, looked up): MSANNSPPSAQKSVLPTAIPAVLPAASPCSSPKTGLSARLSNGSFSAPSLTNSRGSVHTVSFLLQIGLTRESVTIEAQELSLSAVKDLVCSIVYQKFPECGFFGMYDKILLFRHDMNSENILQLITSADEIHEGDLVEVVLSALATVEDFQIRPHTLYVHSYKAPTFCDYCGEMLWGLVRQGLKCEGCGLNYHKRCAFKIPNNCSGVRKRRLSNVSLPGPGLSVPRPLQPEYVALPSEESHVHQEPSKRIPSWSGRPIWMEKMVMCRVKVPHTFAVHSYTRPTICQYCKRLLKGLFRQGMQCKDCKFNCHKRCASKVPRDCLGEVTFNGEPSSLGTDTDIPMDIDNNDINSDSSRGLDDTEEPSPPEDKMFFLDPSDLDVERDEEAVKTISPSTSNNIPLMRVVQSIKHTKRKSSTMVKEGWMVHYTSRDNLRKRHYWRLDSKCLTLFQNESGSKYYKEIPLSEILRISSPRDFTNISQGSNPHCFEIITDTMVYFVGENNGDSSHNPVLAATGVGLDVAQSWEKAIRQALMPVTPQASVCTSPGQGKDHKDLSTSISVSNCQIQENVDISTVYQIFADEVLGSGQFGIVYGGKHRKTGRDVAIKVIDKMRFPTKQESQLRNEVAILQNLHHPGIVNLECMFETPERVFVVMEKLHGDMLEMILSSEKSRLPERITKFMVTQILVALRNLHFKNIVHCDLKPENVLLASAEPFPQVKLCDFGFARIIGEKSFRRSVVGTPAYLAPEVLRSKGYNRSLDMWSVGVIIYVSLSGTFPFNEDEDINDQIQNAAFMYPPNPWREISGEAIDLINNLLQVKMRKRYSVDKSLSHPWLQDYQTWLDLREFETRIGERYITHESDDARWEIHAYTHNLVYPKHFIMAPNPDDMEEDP

MAP2K2 (human) = MAP2K2 (human) (UniProt P36507)
STK33 (human) = STK33 (human) (UniProt Q9BYT3)
PRKG2 (human) = PRKG2 (human) (UniProt Q13237)
SRMS (human) = SRMS (human) (UniProt Q9H3Y6)
EPHA3 (human) = EPHA3 (human) (UniProt P29320)
BRSK2 (human) = BRSK2 (human) (UniProt Q8IWQ3)
MAP4K4 (human) = MAP4K4 (human) (UniProt O95819)
PRKX (human) = PRKX (human) (UniProt P51817)
MAP4K5 (human) = MAP4K5 (human) (UniProt Q9Y4K4)
[1] = test system: ABL1 (human), P00519 [M351T]
MAPK9 (human) = MAPK9 (human) (UniProt P45984)

Chain of CSNK1G2 (human) (P78368 whole entry, looked up): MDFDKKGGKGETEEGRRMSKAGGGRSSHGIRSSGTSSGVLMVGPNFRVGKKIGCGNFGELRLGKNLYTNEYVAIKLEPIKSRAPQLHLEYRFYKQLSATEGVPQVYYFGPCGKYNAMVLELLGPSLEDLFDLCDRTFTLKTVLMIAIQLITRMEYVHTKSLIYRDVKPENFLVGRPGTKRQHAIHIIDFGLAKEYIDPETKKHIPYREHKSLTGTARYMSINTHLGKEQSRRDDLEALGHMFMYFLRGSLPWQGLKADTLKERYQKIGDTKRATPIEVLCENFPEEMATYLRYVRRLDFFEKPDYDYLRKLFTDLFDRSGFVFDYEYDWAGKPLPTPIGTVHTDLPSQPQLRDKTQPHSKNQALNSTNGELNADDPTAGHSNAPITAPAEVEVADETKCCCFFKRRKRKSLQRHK
Chain of MYLK4 (human) (Q86YV6 whole entry, looked up): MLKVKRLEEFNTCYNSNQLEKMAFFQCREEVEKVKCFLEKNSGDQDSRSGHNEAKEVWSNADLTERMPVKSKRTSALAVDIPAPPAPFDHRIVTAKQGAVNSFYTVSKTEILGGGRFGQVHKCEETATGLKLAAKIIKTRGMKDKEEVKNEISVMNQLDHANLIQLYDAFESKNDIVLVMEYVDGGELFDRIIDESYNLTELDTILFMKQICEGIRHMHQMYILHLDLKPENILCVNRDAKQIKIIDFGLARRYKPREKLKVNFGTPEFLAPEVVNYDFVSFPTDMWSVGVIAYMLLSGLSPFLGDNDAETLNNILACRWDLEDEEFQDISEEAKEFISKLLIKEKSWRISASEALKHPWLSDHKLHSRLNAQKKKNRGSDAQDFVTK

## COc1cc(C(=O)NC2CCN(C)CC2)ccc1Nc1ncc2c(n1)N(C1CCCC1)CCC(=O)N2C(C)C
ABL2 (human)
  kinase still bound, per cent of control: 100%
YES1 (human)
  kinase still bound, per cent of control: 100%
CSNK1G2 (human)
  kinase still bound, per cent of control: 100%
IRAK3 (human)
  kinase still bound, per cent of control: 100%
TEC (human)
  kinase still bound, per cent of control: 100%
MYLK4 (human)
  kinase still bound, per cent of control: 100%
PKN1 (human)
  kinase still bound, per cent of control: 100%
STK17B (human)
  kinase still bound, per cent of control: 100%
STK24 (human)
  kinase still bound, per cent of control: 100%
PRKCE (human)
  kinase still bound, per cent of control: 100%
WEE2 (human)
  kinase still bound, per cent of control: 100%
CLK3 (human)
  kinase still bound, per cent of control: 100%
BLK (human)
  kinase still bound, per cent of control: 100%
GAK (human)
  kinase still bound, per cent of control: 100%
SRPK2 (human)
  kinase still bound, per cent of control: 100%
CIT (human)
  kinase still bound, per cent of control: 100%
NTRK3 (human)
  kinase still bound, per cent of control: 100%
AXL (human)
  kinase still bound, per cent of control: 100%
ERBB2 (human)
  kinase still bound, per cent of control: 100%
SRC (human)
  kinase still bound, per cent of control: 100%
CDK9 (human)
  kinase still bound, per cent of control: 100%
HCK (human)
  kinase still bound, per cent of control: 100%
MINK1 (human)
  kinase still bound, per cent of control: 100%
PAK7 (human)
  kinase still bound, per cent of control: 100%
RPS6KA3 KD1 (human)
  kinase still bound, per cent of control: 100%
BMPR1B (human)
  kinase still bound, per cent of control: 100%
PRKCQ (human)
  kinase still bound, per cent of control: 100%
INSRR (human)
  kinase still bound, per cent of control: 100%
PRKD3 (human)
  kinase still bound, per cent of control: 100%
MAP2K2 (human)
  kinase still bound, per cent of control: 100%
STK33 (human)
  kinase still bound, per cent of control: 32%
PRKG2 (human)
  kinase still bound, per cent of control: 100%
SRMS (human)
  kinase still bound, per cent of control: 100%
EPHA3 (human)
  kinase still bound, per cent of control: 100%
BRSK2 (human)
  kinase still bound, per cent of control: 0%
MAP4K4 (human)
  kinase still bound, per cent of control: 100%
PRKX (human)
  kinase still bound, per cent of control: 100%
MAP4K5 (human)
  kinase still bound, per cent of control: 100%
[1]
  kinase still bound, per cent of control: 100%
MAPK9 (human)
  kinase still bound, per cent of control: 100%

Reference: the kinase profiling compilation of Christmann-Franck et al. (2016)
